{
  "source": "patent US7884081B2",
  "about": "“Methods of modulating tubulin deacetylast activity” (The J. David Gladstone Institutes, priority 2002, dated 2011)",
  "key": {"[1]": {"biological_target": "SIRT3 (Homo sapiens, UniProt Q9NTG7)", "sequence (Q9NTG7 whole entry)": "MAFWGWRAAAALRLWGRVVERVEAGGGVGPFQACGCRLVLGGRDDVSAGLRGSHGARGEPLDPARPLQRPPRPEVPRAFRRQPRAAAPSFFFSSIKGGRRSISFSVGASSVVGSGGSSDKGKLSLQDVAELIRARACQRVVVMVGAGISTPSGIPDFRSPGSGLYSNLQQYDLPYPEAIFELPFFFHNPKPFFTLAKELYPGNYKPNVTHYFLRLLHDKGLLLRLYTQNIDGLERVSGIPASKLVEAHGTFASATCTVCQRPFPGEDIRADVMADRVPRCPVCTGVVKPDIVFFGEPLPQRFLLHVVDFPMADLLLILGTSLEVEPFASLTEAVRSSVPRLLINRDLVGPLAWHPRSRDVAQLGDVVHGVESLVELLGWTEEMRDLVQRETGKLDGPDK", "assay": "In vitro HDAC activity assay with recombinant protein (ribavirin)", "format": "biochemical", "method": "(§1) Inhibitory activity of ribavirin against SIRT2 and SIRT3 proteins was tested using recombinant SIRT2 proteins and an in vitro assay. Ribavirin was incubated with recombinant protein only in buffer for 10 minutes; then NAD and substrate were added to start the reaction. Reactions were incubated for 2 hours at room temperature. Reactions were stopped by adding 25 μL stop buffer (0.1M HC1, 0.16M acetic acid) and vortexing briefly. Ethyl acetate extraction isolated any liberated acetyl groups. Ethyl acetate (0.5 ml) was added, mixture was vortexed for 15 seconds and spun at 14,000 rpm for 5 minutes. The upper phase (0.4 ml) was added to 5 mL scintillation fluid (Econofluor-2; Packard) and counted."}, "[2]": {"biological_target": "T1, SIRT2 (Homo sapiens, UniProt Q8IXJ6)", "T1 sequence (Q8IXJ6 1-389)": "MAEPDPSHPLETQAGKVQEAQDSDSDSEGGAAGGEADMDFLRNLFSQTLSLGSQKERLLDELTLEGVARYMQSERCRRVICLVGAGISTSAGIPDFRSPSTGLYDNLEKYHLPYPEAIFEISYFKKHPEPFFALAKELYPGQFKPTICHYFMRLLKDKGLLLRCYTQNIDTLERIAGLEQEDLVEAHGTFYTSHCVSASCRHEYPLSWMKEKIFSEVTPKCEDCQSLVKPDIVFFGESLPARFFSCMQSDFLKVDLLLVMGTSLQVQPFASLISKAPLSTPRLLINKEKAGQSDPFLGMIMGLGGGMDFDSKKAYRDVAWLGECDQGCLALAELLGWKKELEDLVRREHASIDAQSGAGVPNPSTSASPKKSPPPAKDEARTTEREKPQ", "assay": "In vitro HDAC activity assay with recombinant protein (ribavirin)", "format": "biochemical", "parameters": "6xHis; factor Xa protease cleavage site; made in house; host or cells: E. coli DH5αFIQ", "method": "as §1"}, "[3]": {"test_system": "GFP-MIZ-1 sub-cellular distribution in HeLa cells", "assay": "GFP-MIZ-1 sub-cellular localization by immunofluorescence in transfected HeLa cells", "format": "cell-based", "conditions": "for percentage of cells with GFP-MIZ-1 localized in the cytoplasm: TSA treatment", "procedure": "HeLa cells grown on coverslips were transfected with LipofectAMINE reagent (Gibco Invitrogen Corp., Carlsbad, Calif.) for 8 hours according to manufacturer's protocol or by calcium phosphate DNA precipitation method. Transfected cells were incubated for 12 hours with 400 nM TSA (WACO BioProducts, Richmond, Va.) 24 hours after transfection. Cells were washed twice for 10 minutes in PBS and fixed for 10 minutes in 4% formaldehyde (EMS, Ft. Washington, Pa.) followed by permeabilization for 10 minutes in 0.5% Triton-X-100 in PBS. Following three washes for 10 minutes in PBS, cells were incubated for 10 minutes in 10% BSA, and incubated for 1 hour with anti-acetylated tubulin 6-11B-1, anti-tubulin B-5-1-2 diluted 1:1000, or anti-FLAG M2 diluted 1:500 in 0.1% TWEEN-20™ non-ionic detergent. Cells were washed three times in 0.1% TWEEN-20™ non-ionic detergent, followed by incubation with goat anti-mouse IgG (Fc specific) TRITC-conjugated antibody (Sigma, St. Louis) diluted 1:100 in 0.1% TWEEN-20™ non-ionic detergent. Following incubation cells were incubated for 5 minutes in 20 mg/ml 4′,6′-diamidino-2-phenylindole hydrochloride (DAPI) washed three times in phosphate-buffered saline (PBS), once in ddH2O, and mounted with Gel Mount (Biomeda Corp., Foster City, Calif.). Slides were visualized on a Nikon E600 microscope system equipped with a SPOT 2 Digital Camera. Confocal images were acquired by laser-scanning confocal microscopy with an Olympus BX60 microscope equipped with a Radiance 2000 confocal setup (BioRad, Hercules, Calif.).\nTransfected cells were counted as either GFP-MIZ-1 localized completely nuclear or with partial cytoplasmic retention. Cell counts were derived from inspection of at least 150 transfected cells from six microscopic fields. […] Data set is representative of three independent experiments."}, "[4]": {"test_system": "α-tubulin", "conditions": "treatment of cells with TSA; cited from earlier work"}, "[5]": {"biological_target": "T1, SIRT2", "assay": "Ex vivo tubulin deacetylation assay, SIRT2-FLAG with cellular lysate, western blot for acetylated tubulin", "format": "biochemical", "conditions": "1 mM NAD", "method": "Immunoprecipitations were resuspended in 100 μl SIRT deacetylase buffer containing 50 μg total cellular lysate from untransfected HEK 293T cells and 1 mM NAD. Reactions containing 400 nM TSA or 5 mM nicotinamide (Sigma, St. Louis, Mo.) were pre-incubated at room temperature with all components of the reaction in the absence of NAD for 10 minutes, Following the pre-incubation, the enzymatic reactions were started with the addition of NAD followed by incubation for 2 hours at room temperature with constant agitation. Reactions were stopped by the addition of 50 μl 6× SDS-polyacrylamide gel electrophoresis (PAGE) buffer. Beads were pelleted by centrifugation at 14,000 rpm for 10 minutes and 10 μl of each supernatant was separated on 10% SDS-PAGE gels and western blotted as described above.\nIn this assay, HEK 293T cells were transfected with SIRT2-FLAG followed by immunoprecipitation of the FLAG-tagged protein (FIG. 3A). The immunoprecipitated material was separated into two fractions. The first fraction was used to measure HDAC activity using the acetylated histone H4 peptide. […] The extent of acetylation/deacetylation of α-tubulin was determined by western blotting analysis using a specific antisera for acetylated α-tubulin. […]"}, "[6]": {"biological_target": "T1, SIRT2", "assay": "Histone deacetylase assay, immunoprecipitated SIRT2-FLAG on [3H]acetylated histone H4 peptide", "format": "biochemical", "method": "HEK 293T cells were transfected by calcium phosphate DNA precipitation method and lysed 48 hours post-transfection in low stringency lysis buffer (50 mM Tris-HCl, pH 7.5, 0.5 mM EDTA, 0.5% NP-40, 150 mM NaCl) in the presence of protease inhibitor cocktail (Complete, Roche Molecular Biochemicals, Indianapolis, Ind.). FLAG tagged proteins were immunoprecipitated with anti-FLAG M2 agarose affinity gel (Sigma, St. Louis, Mo.) and GFP-tagged proteins were immunoprecipitated with anti-GFP monoclonal antibody (Sigma, St. Louis, Mo.) in the presence of Protein G Sepharose (Amersham Pharmacia Biotech, Inc., Piscataway, N.J.) for 2 hours at 4° C. Immunoprecipitated material was washed 3 times in low stringency lysis buffer and one time in SIRT2 deacetylase buffer (50 mM Tris-HCl, pH 9.0, 4 mM MgCl2, and 0.2 mM dithiothreitol (DTT)).\nImmunoprecipitated material and recombinant SIRT2 were resuspended in 100 μL of SIRT2 deacetylase buffer containing NAD (Sigma, St. Louis, Mo.) and [^3H] acetylated histone H4 peptide (a.a. 1-23) (Emiliani et al., 1998). TSA (WACO BioProducts, Richmond, Va.) was resuspended in dimethyl sulfoxide (DMSO) was further diluted in DMSO and added to reactions to desired concentration. […] After centrifugation for 5 minutes, 400 μL of the ethyl acetate fraction was mixed with 5 ml scintillation fluid and counted."}, "[7]": {"test_system": "SIRT1 protein", "conditions": "cited from earlier work"}, "[8]": {"test_system": "acetylated tubulin in HeLa, 293T and HepG2 cells", "assay": "Microtubule destabilizing drug treatment, western blot for acetylated tubulin", "format": "cell-based", "conditions": "10 μg/mL colchicine or 1 μg/mL nocodazole for 6 hours", "source_text": "Lysates were equilibrated by total protein concentration and were separated on 10% SDS-PAGE gels and western blotted as described above.\nCells were harvested and lysates separated by SDS-PAGE and western blotting using specific antisera for acetylated tubulin and tubulin."}, "[9]": {"biological_target": "recombinant Hst2p (Saccharomyces cerevisiae, UniProt P53686)", "sequence (P53686 whole entry)": "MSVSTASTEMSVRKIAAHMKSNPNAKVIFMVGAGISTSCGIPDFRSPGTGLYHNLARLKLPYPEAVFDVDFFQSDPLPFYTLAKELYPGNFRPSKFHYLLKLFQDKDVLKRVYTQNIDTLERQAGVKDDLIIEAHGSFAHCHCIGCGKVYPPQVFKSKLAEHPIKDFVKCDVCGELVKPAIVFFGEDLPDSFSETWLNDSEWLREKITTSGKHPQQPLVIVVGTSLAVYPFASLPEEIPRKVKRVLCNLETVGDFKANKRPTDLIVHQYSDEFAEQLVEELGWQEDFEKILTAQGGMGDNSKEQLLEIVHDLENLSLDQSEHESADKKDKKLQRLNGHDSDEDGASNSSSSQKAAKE", "assay": "Tubulin peptide deacetylation kinetics (HPLC)", "format": "biochemical, yeast", "conditions": "500 μM NAD, 37° C.", "method": "Increasing concentrations of tubulin peptide (20-900 μM), and 800 μM NAD were reacted in the presence of 0.8 to 1 μM recombinant SIRT2 in 50 mM Tris, pH 7.5, 1 mM DTT, and 10% methanol at 37° C. For Hst2p reactions, tubulin peptides and 500 μM NAD were reacted in the presence of 9 to 19 μM recombinant Hst2p under the same conditions. Reactions were quenched with trifluoroacetic acid (TFA) to a final concentration of 1%. Time points were chosen such that initial velocity conditions were observed. Samples were injected into the high performance liquid chromatography (HPLC) with a Beckman C18 analytical column. Upon injection, the system was run isocratically with solvent A (0.05% TFA in H2O), followed by a gradient of 0-10% solvent B (0.02% TFA in CH3CN) for 4 minutes, and followed by a gradient of 10-23% solvent B for 23 minutes. Deacetylated and acetylated peptides eluted at 16% and 18% CH3CN, respectively. Elution of substrates and products were monitored by measuring the absorbance at 214 nm, and corresponding peaks were integrated using the Beckman System Gold Nouveau software. The amount of product was quantified by calculating the percentage of the deacetylated tubulin peptide from the total tubulin peptide based upon their integration values. […]"}, "[10]": {"biological_target": "T1, SIRT2", "assay": "Tubulin peptide deacetylation kinetics (HPLC)", "format": "biochemical", "parameters": "6xHis; factor Xa protease cleavage site; made in house; host or cells: E. coli DH5αFIQ", "conditions": "SIRT2, 800 μM NAD, 37° C."}},
  "note": "No end group written: not given here.",
  "data": [
    {"compound": "NC(=O)c1ncn([C@@H]2O[C@H](CO)[C@@H](O)[C@H]2O)n1", "note": "[Ribavirin, 1-β-D-ribofuranosyl-1H-1,2,4-triazole-3-carboxamide]", "values": [
      {"measurement": "effect on SIRT3 in vitro HDAC activity", "setting": "[1]", "value": "no effect"},
      {"measurement": "inhibition at 25 µM", "setting": "[2]", "value": "~50", "unit": "%"}
    ]},
    {"compound": "CC(/C=C/C(=O)NO)=C\\[C@@H](C)C(=O)c1ccc(N(C)C)cc1", "note": "[TSA, Trichostatin A]", "values": [
      {"measurement": "localization of GFP-MIZ-1", "setting": "[3]; HeLa cells treated with TSA (400 nM, 12 hours)", "value": "distinct shift in localization of GFP-MIZ-1 from the nucleus to the cytoplasm"},
      {"measurement": "percentage of cells with GFP-MIZ-1 localized in the cytoplasm", "setting": "[3]; co-transfected with FLAG empty vector", "value": 36.9, "unit": "%"},
      {"measurement": "percentage of cells with GFP-MIZ-1 localized in the cytoplasm", "setting": "[3]; co-transfected with SIRT2-FLAG wild-type", "value": 11.2, "unit": "%"},
      {"measurement": "percentage of cells with GFP-MIZ-1 localized in the cytoplasm", "setting": "[3]; co-transfected with catalytically inactive SIRT2-FLAG N168A", "value": 35.3, "unit": "%"},
      {"measurement": "acetylation of α-tubulin in cells", "setting": "[4]", "value": "induces hyperacetylation"},
      {"measurement": "tubulin deacetylation by SIRT2", "setting": "[5]; 400 nM TSA", "value": "had no effect"},
      {"measurement": "HDAC activity of SIRT2", "setting": "[6]; immunoprecipitated SIRT2-FLAG, 1 mM NAD, increasing concentrations of TSA (100-1600 nM)", "value": "No change"}
    ]},
    {"compound": "NC(=O)c1cccnc1", "note": "[nicotinamide]", "values": [
      {"measurement": "tubulin deacetylation by SIRT2", "setting": "[5]; 5 mM nicotinamide", "value": "completely inhibited"},
      {"measurement": "HDAC activity of SIRT2", "setting": "[6]; increasing concentrations of nicotinamide, 156 μM to 20 mM", "value": "dose dependent decrease"},
      {"measurement": "inhibition of SIRT1", "setting": "[7]", "value": "effective inhibitor"}
    ]},
    {"compound": "COC(=O)Nc1nc2ccc(C(=O)c3cccs3)cc2[nH]1", "note": "[nocodazole]", "values": [
      {"measurement": "acetylation state of tubulin", "setting": "[8]", "value": "tubulin deacetylation"}
    ]},
    {"compound": "acetylated tubulin peptide: 9-amino acid synthetic α-tubulin peptide (MPSD(AcK)TIGG), acetylated on lysine-40 (MPSDK(Ac)TIGG)", "values": [
      {"measurement": "V/K", "setting": "[9]", "value": 14.9, "unit": "M⁻¹ s⁻¹"},
      {"measurement": "kcat", "setting": "[9]", "value": "0.00254 ± 0.0003", "unit": "s⁻¹"},
      {"measurement": "V/K", "setting": "[10]", "value": "894 ± 100", "unit": "M⁻¹ s⁻¹"},
      {"measurement": "kcat", "setting": "[10]", "value": "0.144 ± 0.005", "unit": "s⁻¹"}
    ]}
  ]
}
